From ChEMBL document CHEMBL1149962, “Structural and stereochemical requirements of time-dependent inactivators of the interleukin-1 converting enzyme” (Bioorg Med Chem Lett, 1995)

Each molecule was assayed against T1, Caspase-1 (Homo sapiens) (UniProt P29466) (assay: k obs/[I] against Interleukin-1-beta Converting enzyme (ICE) was determined.).
T1 sequence (whole entry): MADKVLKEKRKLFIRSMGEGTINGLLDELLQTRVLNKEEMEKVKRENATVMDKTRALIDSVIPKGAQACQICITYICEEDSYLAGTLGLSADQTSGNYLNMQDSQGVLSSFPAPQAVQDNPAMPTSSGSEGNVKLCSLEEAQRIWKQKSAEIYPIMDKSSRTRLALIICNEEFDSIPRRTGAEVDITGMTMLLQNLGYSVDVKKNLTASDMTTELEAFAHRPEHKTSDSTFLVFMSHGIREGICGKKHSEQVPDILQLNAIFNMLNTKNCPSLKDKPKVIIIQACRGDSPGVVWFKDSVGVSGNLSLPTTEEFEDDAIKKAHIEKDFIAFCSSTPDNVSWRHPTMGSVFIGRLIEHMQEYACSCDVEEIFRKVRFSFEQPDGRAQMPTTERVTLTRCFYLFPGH

In the case of `O=C(O)CC[C@H](NC(=O)OCc1ccccc1)C(=O)COC(=O)c1c(Cl)cccc1Cl`, the k obs / 1 is reported as under 1000 M⁻¹ s⁻¹.

Each molecule was assayed against T2, Caspase-1 (Homo sapiens, UniProt P29466) (assay: Binding affinity against IL-1 beta converting enzyme).
T2 sequence (P29466 whole entry): T1 sequence (whole entry)

Point of comparison: `CC(C)[C@H](NC(=O)OCc1ccccc1)C(=O)N[C@@H](C)C(=O)N[C@H](C=O)CC(=O)O`, Ki 15 nM. Against it:
- CC(C)[C@H](NC(=O)OCc1ccccc1)C(=O)N[C@@H](C)C(=O)N[C@@H](C=O)CC(=O)O — the same, 15 nM

The molecules below were run against T1, Caspase-1 (Homo sapiens) (assay: Inhibition of IL-1 beta converting enzyme).

Point of comparison: `CC(C)[C@H](NC(=O)OCc1ccccc1)C(=O)N[C@@H](CC(=O)O)C(=O)COC(=O)c1c(Cl)cccc1Cl`, k obs / 1 41000 M⁻¹ s⁻¹. Against it:
- O=C(O)C[C@@H](CCOC(=O)c1c(Cl)cccc1Cl)NC(=O)OCc1ccccc1 — lower, < 1000 M⁻¹ s⁻¹
- COC(=O)N[C@@H](Cc1c[nH]cn1)C(=O)N[C@@H](CC(=O)O)C(=O)COC(=O)c1c(Cl)cccc1Cl — 19-fold lower, 2200 M⁻¹ s⁻¹
- COC(=O)N[C@H](C(=O)N[C@@H](CC(=O)O)C(=O)COC(=O)c1c(Cl)cccc1Cl)C(C)C — 8.4-fold lower, 4900 M⁻¹ s⁻¹
- O=C(O)C[C@H](OC(=O)OCc1ccccc1)C(=O)COC(=O)c1c(Cl)cccc1Cl — lower, < 1000 M⁻¹ s⁻¹
- O=C(O)C[C@@H](CC(=O)COC(=O)c1c(Cl)cccc1Cl)NC(=O)OCc1ccccc1 — lower, < 1000 M⁻¹ s⁻¹
- C[C@H](C(=O)O)[C@H](NC(=O)OCc1ccccc1)C(=O)COC(=O)c1c(Cl)cccc1Cl — lower, < 1000 M⁻¹ s⁻¹
- O=C(O)C[C@H](NC(=O)OCc1ccccc1)C(=O)COC(=O)c1c(Cl)cccc1Cl — 5.5-fold lower, 7400 M⁻¹ s⁻¹
- COC(=O)N[C@@H](Cc1cccs1)C(=O)N[C@@H](CC(=O)O)C(=O)COC(=O)c1c(Cl)cccc1Cl — 16-fold lower, 2500 M⁻¹ s⁻¹
- O=C(O)C[C@@H](C(=O)COC(=O)c1c(Cl)cccc1Cl)C(=O)NCCc1ccccc1 — lower, < 1000 M⁻¹ s⁻¹
- O=C(N[C@@H](Cc1nnn[nH]1)C(=O)COC(=O)c1c(Cl)cccc1Cl)OCc1ccccc1 — lower, < 1000 M⁻¹ s⁻¹
- C[C@@H](C(=O)O)[C@H](NC(=O)OCc1ccccc1)C(=O)COC(=O)c1c(Cl)cccc1Cl — lower, < 1000 M⁻¹ s⁻¹
- O=C(O)C[C@H](NC(=O)OCc1ccccc1)C(=O)COc1c(Cl)cccc1Cl — lower, < 1000 M⁻¹ s⁻¹
- C[C@H](NC(=O)OCc1ccccc1)C(=O)N[C@@H](C)C(=O)N[C@@H](CC(=O)O)C(=O)COC(=O)c1c(Cl)cccc1Cl — 2.8-fold higher, 116000 M⁻¹ s⁻¹
- O=C(O)C[C@H](NC(=O)OCc1ccccc1)C(=O)CSc1c(Cl)cccc1Cl — lower, < 1000 M⁻¹ s⁻¹
- C[C@@H](NC(=O)OCc1ccccc1)C(=O)N[C@@H](CC(=O)O)C(=O)COC(=O)c1c(Cl)cccc1Cl — lower, < 1000 M⁻¹ s⁻¹
- O=C(O)C[C@H](NC(=O)OCc1ccccc1)C(O)COC(=O)c1c(Cl)cccc1Cl (stereo partly specified) — lower, < 1000 M⁻¹ s⁻¹
- C[C@H](NC(=O)[C@H](Cc1ccccc1)NC(=O)OCc1ccccc1)C(=O)N[C@@H](CC(=O)O)C(=O)COC(=O)c1c(Cl)cccc1Cl — 5.7-fold higher, 233000 M⁻¹ s⁻¹
- COC(=O)N[C@@H](C)C(=O)N[C@@H](CC(=O)O)C(=O)COC(=O)c1c(Cl)cccc1Cl — 5.9-fold lower, 7000 M⁻¹ s⁻¹
- COC(=O)NCC(=O)N[C@@H](CC(=O)O)C(=O)COC(=O)c1c(Cl)cccc1Cl — lower, < 1000 M⁻¹ s⁻¹
- CN(C(=O)OCc1ccccc1)[C@@H](CC(=O)O)C(=O)COC(=O)c1c(Cl)cccc1Cl — lower, < 1000 M⁻¹ s⁻¹
- O=C(O)CCC[C@H](NC(=O)OCc1ccccc1)C(=O)COC(=O)c1c(Cl)cccc1Cl — lower, < 1000 M⁻¹ s⁻¹
- C[C@H](NC(=O)[C@@H](C)NC(=O)OCc1ccccc1)C(=O)N[C@@H](CC(=O)O)C(=O)COC(=O)c1c(Cl)cccc1Cl — 4.1-fold lower, 10000 M⁻¹ s⁻¹
